Results: patent US10988474B2, “Compounds acting at multiple prostaglandin receptors giving a general anti-inflammatory response” (ALLERGAN, INC., priority 2011, dated 2021)

How the values were obtained:
Assay type in all cases: cell-based
[1] = biological target: T1, human prostanoid EP1 receptor (Homo sapiens, UniProt P34995); experiment: FLIPR Ca2+ signaling PG antagonist assay, EP1 stable cell line; details: HEK-293 EBNA cells, human recombinant EP1, no exogenous G-protein; standard agonist PGE2
T1 construct: expressed in transfected cells
T1 sequence (P34995 1-402): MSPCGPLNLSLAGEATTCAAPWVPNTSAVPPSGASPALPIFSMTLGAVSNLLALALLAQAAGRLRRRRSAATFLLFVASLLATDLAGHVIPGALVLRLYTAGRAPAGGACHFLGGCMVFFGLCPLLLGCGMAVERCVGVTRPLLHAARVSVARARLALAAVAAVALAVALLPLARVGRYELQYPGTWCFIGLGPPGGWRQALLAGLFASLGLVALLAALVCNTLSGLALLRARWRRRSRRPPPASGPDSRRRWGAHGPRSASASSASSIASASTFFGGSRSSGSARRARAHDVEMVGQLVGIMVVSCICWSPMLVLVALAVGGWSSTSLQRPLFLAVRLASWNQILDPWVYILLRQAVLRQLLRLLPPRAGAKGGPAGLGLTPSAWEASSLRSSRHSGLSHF
Summary of the method: (§1)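 HEK-293 EBNA stable lines; EP2 co-expressed with chimeric Gqs, EP1/IP/TP with no exogenous G protein. Fluo-4AM-loaded cells pretreated 4.5 min at 37 °C with compound (0.1–30 μM; TP 0.067–1 μM), then standard agonist (PGE2, cicaprost, U-46619) 10^−11–10^−5 M (TP 10^−12–10^−6 M); peak fluorescence read 3.5 min, nonlinear regression.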

[2] = biological target: T2, human prostanoid FP receptor (Homo sapiens, UniProt P43088); experiment: FLIPR Ca2+ signaling PG antagonist assay, FP stable cell line; details: HEK-293 EBNA cells, human recombinant FP, no exogenous G-protein; standard agonist 17-phenyl-PGF2α
T2 construct: expressed in transfected cells
T2 sequence (P43088 whole entry): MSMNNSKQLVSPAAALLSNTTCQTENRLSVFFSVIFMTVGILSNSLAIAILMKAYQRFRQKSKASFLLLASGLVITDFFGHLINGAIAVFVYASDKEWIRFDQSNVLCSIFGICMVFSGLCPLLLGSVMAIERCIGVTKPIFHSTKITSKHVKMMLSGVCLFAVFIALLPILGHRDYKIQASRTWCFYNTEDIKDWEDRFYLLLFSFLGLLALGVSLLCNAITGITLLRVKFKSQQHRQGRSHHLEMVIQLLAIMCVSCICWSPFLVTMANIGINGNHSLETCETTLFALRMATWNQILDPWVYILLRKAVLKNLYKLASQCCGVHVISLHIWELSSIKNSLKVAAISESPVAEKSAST
Summary of the method: (§2)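 Stable HEK-293 EBNA lines (DP1 with chimeric Gqs, EP3 with Gqi, EP1 and FP without exogenous G protein) were Fluo-4AM-loaded and pretreated 4.5 min at 37 °C with compound (0.1–30 μM). Agonist (BW 245C for DP1, PGE2 for EP1/EP3, 17-phenyl-PGF2α for FP) was then added at 10^−11–10^−5 M. Peak Ca2+ fluorescence was taken relative to agonist at 10^−6 M.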

[3] = biological target: T3, human prostanoid EP2 receptor (Homo sapiens, UniProt P43116); experiment: FLIPR Ca2+ signaling PG antagonist assay, EP2 stable cell line; details: HEK-293 EBNA cells, human recombinant EP2 with chimeric Gqs; standard agonist PGE2
T3 construct: expressed in transfected cells
T3 sequence (P43116 whole entry): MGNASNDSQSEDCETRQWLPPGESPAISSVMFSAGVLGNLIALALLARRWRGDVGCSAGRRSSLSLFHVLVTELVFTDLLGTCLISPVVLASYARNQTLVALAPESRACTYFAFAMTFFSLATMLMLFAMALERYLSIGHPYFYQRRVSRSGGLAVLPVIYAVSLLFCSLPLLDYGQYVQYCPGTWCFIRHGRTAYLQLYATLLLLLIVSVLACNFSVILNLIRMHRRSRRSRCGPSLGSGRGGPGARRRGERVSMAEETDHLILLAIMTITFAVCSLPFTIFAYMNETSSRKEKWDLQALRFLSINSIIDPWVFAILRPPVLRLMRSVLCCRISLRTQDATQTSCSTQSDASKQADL
Summary of the method: as §1

[4] = biological target: T4, human prostanoid IP receptor (Homo sapiens, UniProt P43119); experiment: FLIPR Ca2+ signaling PG antagonist assay, IP stable cell line; details: HEK-293 EBNA cells, human recombinant IP, no exogenous G-protein; standard agonist Cicaprost
T4 construct: expressed in transfected cells
T4 sequence (P43119 whole entry): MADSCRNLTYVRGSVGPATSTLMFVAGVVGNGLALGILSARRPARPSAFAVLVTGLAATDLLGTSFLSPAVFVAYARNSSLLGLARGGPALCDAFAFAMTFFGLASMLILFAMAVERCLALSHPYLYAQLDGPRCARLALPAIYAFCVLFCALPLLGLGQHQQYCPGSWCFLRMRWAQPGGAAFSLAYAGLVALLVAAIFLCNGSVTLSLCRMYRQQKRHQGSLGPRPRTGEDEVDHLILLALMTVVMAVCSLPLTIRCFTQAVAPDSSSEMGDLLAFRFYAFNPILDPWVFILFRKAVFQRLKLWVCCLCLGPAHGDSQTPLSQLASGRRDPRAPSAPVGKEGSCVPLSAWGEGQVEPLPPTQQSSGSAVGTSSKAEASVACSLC
Summary of the method: as §1

[5] = biological target: T5, human prostanoid EP4 receptor (Homo sapiens, UniProt P35408); experiment: FLIPR Ca2+ signaling PG antagonist assay, EP4 stable cell line; details: HEK-293 EBNA cells, human recombinant EP4 with chimeric Gqs; standard agonist PGE2
T5 construct: expressed in transfected cells
T5 sequence (P35408 whole entry): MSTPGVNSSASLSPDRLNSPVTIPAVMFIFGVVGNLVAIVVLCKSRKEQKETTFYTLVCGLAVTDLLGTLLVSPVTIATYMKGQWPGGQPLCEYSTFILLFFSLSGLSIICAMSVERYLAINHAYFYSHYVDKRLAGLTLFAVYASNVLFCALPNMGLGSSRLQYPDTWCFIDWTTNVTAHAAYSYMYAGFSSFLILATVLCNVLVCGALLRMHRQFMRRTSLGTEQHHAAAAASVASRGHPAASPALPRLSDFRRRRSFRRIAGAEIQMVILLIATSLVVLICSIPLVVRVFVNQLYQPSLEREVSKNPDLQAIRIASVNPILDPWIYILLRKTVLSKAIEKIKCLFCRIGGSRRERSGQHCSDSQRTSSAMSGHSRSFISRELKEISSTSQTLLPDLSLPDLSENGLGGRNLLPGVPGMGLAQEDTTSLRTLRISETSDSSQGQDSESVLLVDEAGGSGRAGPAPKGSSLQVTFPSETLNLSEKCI
Summary of the method: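 Antagonism at human EP4 was assessed as a Ca^2+ signal in stable HEK-293 EBNA transfectants carrying chimeric Gqs. Dye-loaded cells in HBSS-HEPES at 37° C received test compound, then a 7-point 10-fold PGE2 series. Fluorescence was excited at 470-495 nm and read at 515-575 nm for 3.5 minutes, with each condition run in triplicate and buffer used as the negative control.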

[6] = biological target: T6, human prostanoid DP1 receptor (Homo sapiens, UniProt Q13258); experiment: FLIPR Ca2+ signaling PG antagonist assay, DP1 stable cell line; details: HEK-293 EBNA cells, human recombinant DP1 with chimeric Gqs; standard agonist BW 245C; read-out: DP (Kb, PG antagonist activity)
T6 construct: expressed in transfected cells
T6 sequence (Q13258 1-359): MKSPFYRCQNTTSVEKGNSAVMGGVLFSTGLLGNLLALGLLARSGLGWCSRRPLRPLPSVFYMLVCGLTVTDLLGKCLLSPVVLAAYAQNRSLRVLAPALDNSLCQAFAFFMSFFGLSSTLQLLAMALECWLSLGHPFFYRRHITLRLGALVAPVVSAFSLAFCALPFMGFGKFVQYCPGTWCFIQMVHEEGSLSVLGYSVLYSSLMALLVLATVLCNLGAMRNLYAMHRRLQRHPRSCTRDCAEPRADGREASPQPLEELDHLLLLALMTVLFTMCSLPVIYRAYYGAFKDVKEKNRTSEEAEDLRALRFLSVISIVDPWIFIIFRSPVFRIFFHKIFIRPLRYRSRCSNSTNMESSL
Summary of the method: as §2

SMILES	Kb [1] [nM]	Kb [2] [nM]	Kb [3] [nM]	Kb [4] [nM]	Kb [5] [nM]	Kb [6] [nM]	IP (Kb, PG antagonist activity) [4]	FP (Kb, PG antagonist activity) [2]
CCC(CC)COc1ccc(Cl)cc1Cn1nc(C)c2cc(C(=O)O)ccc21 [Example 23, 1-[5-Chloro-2-(2-Ethyl-Butoxy)-Benzyl]-3-Methyl-1H-Indazole-5-Carboxylic Acid]	30	170	7100	500	50	900	–	–
CC(C)COc1ccc(Br)cc1Cn1ncc2ccc(C(=O)O)cc21 [Example 42, 1-(5-Bromo-2-Isobutoxy-Benzyl)-1H-Indazole-6-Carboxylic Acid]	24	900	≥ 10000	3400	1800	160	–	–
CCC(CC)COc1ccc(Cl)cc1Cn1ccc2cc(C(=O)O)ccc21 [Example 1, 1-[5-Chloro-2-(2-Ethyl-Butoxy)-Benzyl]-1H-Indole-5-Carboxylic Acid]	180	560	8700	2200	70	2100	–	–
O=C(O)c1ccc2c(cnn2Cc2cc(Br)ccc2OCc2ccc(Cl)cc2)c1 [Example 13, 1-[5-Bromo-2-(4-Chloro-Benzyloxy)-Benzyl]-1H-Indazole-5-Carboxylic Acid]	50	20	1900	600	2700	1200	–	–
O=C(O)c1cccc2c1cnn2Cc1cc(Cl)ccc1OCc1ccc(Cl)cc1 [Example 40, 1-[5-Chloro-2-(4-Chloro-Benzyloxy)-Benzyl]-1H-Indazole-4-Carboxylic Acid]	60	270	900	–	2500	1000	PAg	–
CCC(CC)COc1ccc(Cl)cc1Cn1ncc2ccc(C(=O)O)cc21 [Example 6]	≥ 10000	2400	≥ 10000	≥ 10000	≥ 10000	7100	–	–
CC(C)COc1ccc(OC(F)(F)F)cc1Cn1ccc2cc(C(=O)O)cnc21 [Example 74, 1-(2-Isobutoxy-5-Trifluoromethoxy-Benzyl)-1H-Pyrrolo[2,3-B]Pyridine-5-Carboxylic Acid]	60	660	≥ 10000	1400	440	290	–	–
Cc1nn(Cc2cc(C(F)(F)F)ccc2OCC(C)C)c2ccc(C(=O)O)cc12 [Example 25, 1-(2-Isobutoxy-5-Trifluoromethyl-Benzyl)-3-Methyl-1H-Indazole-5-Carboxylic Acid]	27	180	9300	1030	160	220	–	–
CC(C)COc1ccc(Br)cc1Cn1cnc2cc(C(=O)O)ccc21 [Example 79, 1-(5-Bromo-2-Isobutoxy-Benzyl)-1H-Benzoimidazole-5-Carboxylic Acid]	11	80	≥ 10000	7000	80	2000	–	–
CC(C)COc1ccc(OC(F)(F)F)cc1Cn1ncc2cc(C(=O)O)cnc21 [Example 58, 1-(2-Isobutoxy-5-Trifluoromethoxy-Benzyl)-1H-Pyrazolo[3,4-B]Pyridine-5-Carboxylic Acid]	30	60	≥ 10000	≥ 10000	380	1800	–	–
CC1(COc2ccc(Br)cc2Cn2ncc3cc(C(=O)O)ccc32)CC1 [Example 19]	12	16	8800	4600	14	1200	–	–
CCc1nn(Cc2cc(Br)ccc2OCC(CC)CC)c2ccc(C(=O)O)cc12 [Example 65, 1-[5-Bromo-2-(2-Ethyl-Butoxy)-Benzyl]-3-Ethyl-1H-Indazole-5-Carboxylic Acid]	40	–	6500	880	55	1500	–	PAg
CC(C)COc1ccc(Br)cc1Cn1ccc2cc(C(=O)O)cnc21 [Example 72, 1-(5-Bromo-2-Isobutoxy-Benzyl)-1H-Pyrrolo[2,3-B]Pyridine-5-Carboxylic Acid]	10	25	≥ 10000	2000	220	1500	–	–
O=C(O)c1ccc2c(cnn2Cc2cc(Cl)ccc2OCc2ccc(Cl)cc2)c1 [Example 9, 1-[5-Chloro-2-(4-Chloro-Benzyloxy)-Benzyl]-1H-Indazole-5-Carboxylic Acid]	90	20	3200	1350	3000	1200	–	–
CC(C)COc1ccc(Br)cc1Cn1ncc2cc(C(=O)O)ccc21 [Example 4]	6	20	1800	800	25	700	–	–
O=C(O)c1ccc2c(cnn2Cc2cc(Br)ccc2OCC2CC2)c1 [Example 15, 1-(5-Bromo-2-Cyclopropylmethoxy-Benzyl)-1H-Indazole-5-Carboxylic Acid]	190	130	3300	1800	200	1800	–	–
Cc1nn(Cc2cc(Br)ccc2OCC2(C)CC2)c2ccc(C(=O)O)cc12 [Example 28, 1-[5-Bromo-2-(1-Methyl-Cyclopropylmethoxy)-Benzyl]-3-Methyl-1H-Indazole-5-Carboxylic Acid]	43	70	9200	1530	40	730	–	–
CC(C)COc1ccc(Cl)cc1Cn1ncc2cc(C(=O)O)cnc21 [Example 57, 1-(5-Chloro-2-Isobutoxy-Benzyl)-1H-Pyrazolo[3,4-B]Pyridine-5-Carboxylic Acid]	27	190	≥ 10000	≥ 10000	1300	5500	–	–
CC(C)COc1ccc(OC(F)(F)F)cc1Cn1ncc2cc(C(=O)O)ccc21 [Example 20, 1-(2-Isobutoxy-5-Trifluoromethoxy-Benzyl)-1H-Indazole-5-Carboxylic Acid]	30	13	≥ 10000	2700	30	500	–	–
O=C(O)c1ccc2c(cnn2Cc2cc(C(F)(F)F)ccc2OCc2ccc(Cl)cc2)c1 [Example 32, 1-[2-(4-Chloro-Benzyloxy)-5-Trifluoromethyl-Benzyl]-1H-Indazole-5-Carboxylic Acid]	210	50	≥ 10000	7400	5000	1700	–	–
CC(C)(O)COc1ccc(Br)cc1Cn1ncc2cc(C(=O)O)ccc21 [Example 53, 1-[5-Bromo-2-(2-Hydroxy-2-Methyl-Propoxy)-Benzyl]-1H-Indazole-5-Carboxylic Acid]	1500	230	≥ 10000	≥ 10000	≥ 10000	≥ 10000	–	–
O=C(O)c1cccc2nn(Cc3cc(Cl)ccc3OCc3ccc(Cl)cc3)cc12 [Example 41, 2-[5-Chloro-2-(4-Chloro-Benzyloxy)-Benzyl]-2H-Indazole-4-Carboxylic Acid]	≥ 10000	≥ 10000	≥ 10000	9800	≥ 10000	4700	–	–
